Earlier results in patent EP3473244A1, “CONTROLLED RELEASE ORAL TAMSULOSIN HYDROCHLORIDE” (Veru Inc., priority 2017, dated 2019).

Settings: reported value used to set PK sampling times

T ½: 5 h
Structure (SMILES): CCOc1ccccc1OCCN[C@H](C)Cc1ccc(OC)c(S(N)(=O)=O)c1 [Tamsulosin]
